From US20180064965A1, “PEPTIDE FOR PROMOTING HAIR GROWTH” (H&H GROUP CO., LTD., priority 2016, published 2018)

What was measured:
[1] = tested on: dermal papilla cells; test: Cell proliferation assay (MTT); assay type: cell-based; details: rat dermal papilla cells, 50 μg/ml, quotient of MTT value vs 0 hour
Experimental: Dermal papilla cells were isolated from rat whiskers and cells were cultured in Dulbecco's modified Eagle's medium (Thermo Scientific, Barrington, Ill., USA) with 10% fetal bovine serum (Gibco, Grand Island, N.Y., USA) and penicillin/streptomycin (100 IU/[…]) in a humidified atmosphere containing 5% CO2 at 37° C. Dermal papilla cells at the 3rd passage were used for all of the following experiments.
2×10^3 dermal papilla cells were seeded in 96-well plates and incubated with Mucinhair peptide (50 μg/ml) or ddH2O for the indicated period. 10 μL of 5 mg/mL 3-(4,5-dimethyl-2-thiazolyl)-2,5-diphenyl-2H-tetrazolium bromide solution (MTT; Sigma) was added to each well and incubated at 37° C. for 4 hours. After which, 100 μL of 10% SDS in 0.01N HCl was added to dissolve the MTT formazan crystals. The resultant optical density was measured spectrophotometrically at dual wavelengths, 550 and 630 nm. The MTT value was obtained by subtracting the OD630 value from the OD550 value.
The term “proliferation rate” used herein is defined as a quotient of the MTT value calculated from cells treated for an indicated period and that calculated from cells treated for 0 hour.

[2] = tested on: Hair follicles; test: Hair follicle culture; assay type: cell-based; details: rat whisker hair follicles, 50 μg/ml, 20th day after treatment, vs ddH2O
Experimental: Hair follicles were isolated from 4 week-old rat whiskers and were maintained in Dulbecco's Modified Eagle Medium supplemented with 10% fetal bovine serum, 1% (v/v) antibiotic, and 250 ng/ml fungizone in 5% CO2 at 37° C. for 24 hours. Then, the hair follicles were treated with ddH2O or Mucinhair peptide (50 μg/ml). Medium was changed every 6 days and the hair shaft lengths were measured under a phase contrast microscope on the 20th day after the treatment.

[3] = tested on: nude mice; test: Hair patch assay for nude mice; assay type: in vivo; details: subcutaneous injection of epidermal and dermal cells with 50 μg/ml peptide, 30 days
Experimental: Skin was peeled off from 1 day-old C57BL/6 mouse and its epidermis was separated from the dermis by 10 mg/ml Dispase digestion at 4° C. for 2 days. Epidermis and dermis were cut into small pieces and digested at 37° C. in 0.05% Trypsin-EDTA for 15 minutes and then 20 mg/ml collagenase for 60 minutes. Epidermal cells and dermal cells were collected through filtration with 70 μm strainers and low-speed centrifugation.
2×10^7 epidermal cells and 1×10^8 dermal cells were subcutaneously injected into nude mice with ddH2O or Mucinhair peptide (50 μg/ml). After 30 days, mice were sacrificed and hair patch was excised and photographed. The excised skins were paraffin-embedded and tissues were sectioned and stained with hemmtoxylin and eosin (H&E).

Sequence: NTSDPQKENRNTG [Mucinhair peptide]
- proliferation rate ([1]; treated for 48 hours): 2.26±0.23
- proliferation rate ([1]; treated for 96 hours): 3.31±0.21
- hair shaft lengths [2]: longer than those grown with ddH2O treatment
- hair follicles in hypodermis (H&E) [3]: has neogenic hair follicles
- region with hairs ([3]; vs ddH2O): larger than that injected with ddH2O
